Structures are written as SMILES.

The record followed here is US20230365927A1, “COMPOSITION AND METHOD FOR […] NON-NEURONAL CELLS INTO NEURONS” (INSTITUTE OF ZOOLOGY, CHINESE ACADEMY OF SCIENCES, priority 2020, published 2023).

In the assay the test system is human foreskin fibroblasts (HFF1y, Beijing Stem Cell Bank). As to the kind of experiment: Transdifferentiation of human foreskin fibroblasts into neurons in vitro (induction culture solution, then mature culture solution). In kind it is cell-based. The conditions noted are these: for rank of gene expression level of neuronal markers (MAPT and MAP2) by myosin inhibitor in the culture solutions: induction 7 days, mature solution (with isoxazole) 7 days, Examples 8-12. The procedure: After removing the fibronectin solution, the human foreskin fibroblasts (HFF1y, Beijing Stem Cell Bank) were evenly inoculated at 2×10^6 cells per vessel, culturing with basal medium (high glucose DMEM (Gibco, C12430500BT) plus 10% fetal bovine serum (Gibco, 16000-044)) for 12 hours. After removing the basal medium, the cells were washed with PBS.
An induction culture solution was added to the HFF1y vessel after undergoing the above treatment to culture for 1-7 days.
After the above induction culture for 1-7 days, a mature culture solution was added to HFF1y to culture for 7-45 days.

The mark [1] stands for this setting: induction solution without Ble 7 days, then mature solution with ISX9 and without Ble 7 days.

On to `Cc1ccc2c(c1)C(=O)[C@]1(OC(=O)c3ccccc3)CCN(c3ccccc3)C1=N2` [Ble-OB, (−)-Blebbistatin O-Benzoate], for which the “rank of gene expression level of neuronal markers (MAPT and MAP2) by myosin inhibitor in the culture solutions” value is recorded as “third”.

Turning to `O=C(NC1CC1)c1cc(-c2cccs2)on1` [ISX9, isoxazole 9], under setting [1], the “cell morphology (micrograph)” value was “do not appear neuron-like morphology”; the “expressions of canonical neuronal markers (GFAP, TUJ1, MAP2, MAPT, STMN1, NCAM) and synapse-related proteins (NEFH, PSD95, SYN1, SYT)” value is “significantly up-regulated”; the “gene expression of fibroblast marker FSP1” value is “significantly down-regulated”; the “gene expression of neural transcription factors (ASCL1, BRN2, NEUROD1)” value is listed as “up-regulated”.

For `Cc1ccc2c(c1)C(=O)[C@]1(O)CCN(c3ccccc3)C1=N2` [Ble, (−)-Blebbistatin], the “rank of gene expression level of neuronal markers (MAPT and MAP2) by myosin inhibitor in the culture solutions” value is given as “highest”. Besides, the “RNA-seq, GO cluster analysis of up-regulated genes” value (induction culture system comprising only Ble, p<0.05) is given as “up-regulated genes in induced cells were enriched in the neuronal fate-related pathways”. Besides, the “cell morphology after induction culture solution only” value (induction solution 25 μM Ble, 1-7 days, no isoxazole) is “obvious neuronal morphology, small and round cell bodies, and rich and long synapses”.
